Reference: patent US20100310451A1, “ALTERED N-CADHERIN PROCESSING IN TUMOR CELLS BY FURIN AND PROPROTEIN CONVERTASE 5A (PC5A)” (THE ROYAL INSTITUTION FOR THE ADVANCEMENT OF LEARN, priority 2007, published 2010)
The star is where a group is joined. Decanoyl = CCCCCCCCCC(=O)*; CH2Cl = ClC*

Assays:
[1] = test system: proprotein convertases (PCs); test: N-cadherin proteolytic processing assay, transfected HeLa cells; assay type: cell-based; settings: HeLa cells transfected with N-cadherin +/- FL-PC5A; 50 μM dec-cmk; proN antibody
Procedure: (§1) To assess N-cadherin proteolytic processing, we devised an assay where N-terminal cleavage products were detected in the conditioned medium of cells using the proN antibody. Cells were transiently transfected with the appropriate construct(s), the conditioned medium was collected 36 h later, concentrated, and total protein concentration was determined using a Lowry assay (Biorad). Conditioned medium (15 μg protein) was run on a 15% gel, and cleavage products detected were as follows: a 17 kDa band corresponded to cleavage at the consensus site, and a 20 kDa band represented cleavage at the second site.

[2] = test system: proprotein convertases (PCs); test: N-cadherin proteolytic processing assay, transfected U251 and U343 glioma cells; assay type: cell-based, human; settings: U251 and U343 cells transfected with N-cadherin; dec-cmk in culture medium
Procedure: as §1

[3] = test system: PC5A; test: Endogenous PC5A cell surface localization, glioma cells; assay type: cell-based, human; settings: U251 and U343 cells; heparin added to the cells
Procedure: (§2) Live-cell staining was carried out by incubating cells plated on coverslips with primary antibody diluted in medium without serum at 4° C. for 1 h. The cells were washed with PBS and fixed in 4% paraformaldehyde. Following washes with PBS, cells were incubated with fluorescent-conjugated secondary antibody diluted in 1% BSA, 0.02% TritonX, PBS, for 40 min at room temperature. Coverslips were then mounted and examined as above. For surface PC5A staining, cells were washed twice with ice-cold PBS, fixed with freshly prepared 3.7% paraformaldehyde for 10 min on ice, washed 3 times with PBS, incubated in 150 mM glycine for 5 min, washed once with PBS, blocked for 30 min in 1% BSA, incubated in primary antibody overnight at 4° C., washed 4 times with PBS, incubated with secondary antibody for 40 min at room temperature, and washed 4 times with PBS. Coverslips were mounted and examined as above.

[4] = test system: PC5A; test: PC5A cell surface localization, FL-PC5A transfected HeLa cells; assay type: cell-based; settings: HeLa cells transfected with FL-PC5A; heparin added to culture medium; non-permeabilizing
Procedure: as §2

Substance	N-cadherin cleavage products in conditioned medium [1]	N-cadherin cleavage products in conditioned medium [2]	PC5A detection at the cell surface [3]	PC5A detection on the cell surface [4]
Decanoyl-Arg-Val-Lys-Arg-chloromethylketone (Decanoyl-RVKR-CH2Cl) [dec-cmk]	no cleavage products detected	no cleavage products detected	–	–
heparin	–	–	not detected	not detected
